{
  "source": "paper PMC4872661",
  "about": "(Journal of molecular recognition : JMR, 2011)",
  "target": "DAFP-1",
  "assay": "Hummel-Dreyer size-exclusion HPLC, Klotz plot",
  "format": "binding, Dendroides canadensis",
  "settings": "0.10 M Na2SO4, 0.05% NaN3, 0.10 M NaPi, pH 7.00, ambient temperature; 1:1 stoichiometry",
  "data": [
    {"compound": "NC(=O)C1=CN([C@@H]2O[C@H](COP(=O)(O)OP(=O)(O)OC[C@H]3O[C@@H](n4cnc5c(N)ncnc54)[C@H](O)[C@@H]3O)[C@@H](O)[C@H]2O)C=CC1", "note": "[NADH, β-nicotinamide adenine dinucleotide, reduced]", "values": [
      {"measurement": "Kd", "value": "280 ± 20", "unit": "nM"}
    ]}
  ]
}
